The results in this text go back to paper PMC7093416, “Selective USP7 inhibition elicits cancer cell killing through a p53-dependent mechanism” (Scientific Reports, 2020).

Experiment [1] has as its target T1, full-length USP7 (Homo sapiens, UniProt Q93009).
T1 construct: The constructs encoding USP7 full length (amino acids 1–1102) and catalytic domain (208–560); inferred from Ni-NTA purification; made in house; host or cells: E. coli BL21 (DE3)
The experiment can be described thus: Ub-AMC enzymatic assay, full-length USP7, 6 h pre-incubation. The format is biochemical. The settings on record: for IC50: Ub-AMC, read-out: IC50. The method, then: Full length USP7 was tested for its activity in Ubiquitin-AMC assay in presence or absence of inhibitors. USP7 (5 nM) was pre-incubated for 6 hours at room temperature with different concentrations of inhibitors or DMSO as a control in 50 mM HEPES pH 7.5, 0.5 mM EDTA, 11 uM ovalbumin, and 5 mM DTT. Ubiquitin-AMC (Boston Biochem) was then added to a final concentration of 500 nM. The initial rate of the reaction was measured by collecting fluorescence data at one minute intervals over 30-minute period using a Clariostar fluorescence plate reader at excitation and emission wavelength of 345 and 445 nm respectively. The calculated initial rate values were plotted against inhibitor concentrations to determine IC50s. All the experimental data were plotted using Prism GraphPad. All assays for each compound were performed at least twice for each compound.

The test system of experiment [2] is MCF7 cells. The experiment in a line: 3' DGE RNA-seq transcriptional profiling. The format is cell-based. The arrangement: log2FoldChange: concentration or dose not given beside the values. The following applies: gene ABCA12; concentration 1. The method, then: The DGE RNA sequencing was performed following the published method[39],[40] with modifications as described below. MCF7 cells were seeded in a 384 well plate at 2500 cells per well, allowed to adhere for 24 hours, then treated with two doses in triplicate of XL177A, XL177B, Nutlin-3, or DMSO. After 24 hours of treatment, an EL405x plate washer (BioTek) was used to aspirate the media and wash once with PBS. Cells were lysed in the plate with 10 µl of lysis buffer (1x Qiagen TCL, 1% BME) for 5 minutes at room temperature, then stored at −80 °C. Automated liquid handling was performed with assistance from ICCB-Longwood Screening Facility. A BRAVO Automated Liquid Handling Platform (Agilent) was used for RNA extraction as follows. The lysate was mixed and 10 µl was transferred to a 384 well PCR plate. 28 µl of homemade SPRI[66] (solid-phase reversible immobilization) beads were added to the lysate and mixed. After 5 minutes, the beads were pulled down by placing the plate on a magnet, then the beads were washed twice with 80% ethanol. Beads were air dried for 1 minute, then 20 µl of nuclease free water was added, the plate was removed from the magnet, and the beads were resuspended. After 5 minutes, the plate was placed back on the magnet to pull down the beads. The supernatant was transferred to a fresh 384 well plate. RNA quantity was checked with the Qubit Fluorometer and RNA quality was assessed using the Agilent BioAnalyzer RNA 6000 Pico Kit. The BRAVO platform was again used to transfer 5 µl of supernatant was transferred to a fresh 384 well plate with RT master mix and 1 µl of barcoded E3V6NEXT adapters for reverse transcription and template switching. The plate was incubated for 90 minutes at 42 °C, then cDNA was pooled, purified with the QIAquick PCR purification kit. The full-length cDNA was treated with Exonuclease I to remove excess primers for 30 minutes at 37 °C then amplified x5 cycles with Advantage 2 PCR Enzyme System using the SINGV6 primer. The amplified full-length cDNA was purified with Agencourt AMPure XP magnetic beads and quantitated by Qubit Fluorometer. The sequencing library was prepared using the Nextera DNA kit following the manufacturer’s instructions. Briefly, 55 ng of cDNA was tagmented for 5 minutes at 55 °C then purified using Zymo DNA Clean & Concetrator-5 column, then amplified x7 cycles and purified using a 0.9x ratio of AMPure XP magnetic beads. The library size distribution was assessed by Agilent BioAnalyzer HS DNA Kit before it was quantified by qPCR and sequenced on an Illumina NextSeq at the Biopolymers Facility at Harvard Medical School.
The bcbio-nextgen single cell RNA-seq analysis pipeline (https://bcbio-nextgen.readthedocs.io/en/latest/) was used to deconvolve the well barcodes and convert reads to counts. Any detected barcode that differed by more than one base from an expected barcode was removed. Unique reads were identified using unique molecular identifiers (UMIs) in order to remove PCR duplicates. The reads remaining after these filters were aligned to the transcriptome (GRCh38) using RapMap[67]. The R package DESeq. 2 version 1.20.0 (R version 3.5.1) was used for differential expression analysis.

The target of experiment [3] is T1, full-length USP7. The experiment can be described thus: Ub-AMC time course assay for kinact / KI. The format is biochemical. The method, then:
To calculate the ki and kianct values for XL-9678-041, the procedure above was used, but different concentrations of inhibitor were incubated with USP7 for different time points (5 min - 3 hours) before adding Ubiquitin-AMC. To determine kobs, the time course curves were fit to the equation y = ymax(1 − exp(−kobs⋅x)). The kobs values were then plotted against the inhibitor concentrations and fit to the equation y = kinact/(1 + (ki/x)) to obtain the values for ki and kianct.
Supplementary Figure Captions
Figure S1: Full-length recombinant purified USP7 was pre-incubated with XL041 at the indicated concentrations for the indicated times, then Ub-AMC was added and fluorescence was monitored. Graphpad Prism software was used to calculate initial reaction velocity and derive KI / kinact values (bottom panel).
Figure S2: Mass spectra (left) and zero-charge mass spectra (right) of WT USP7 catalytic domain incubated for 4 hours with DMSO (top) or 2.5-fold molar excess XL058 (bottom). […]
Figure S5: MCF7 cells were transfected with the indicated pcDNA constructs for 48 hours, then treated with XL177A at the indicated concentration for 3 hours. Cells were lysed, and FLAG-USP7 target engagement was assessed with the DUB ABP HA-Ub-VS. Densitometry was performed using ImageStudio software and analyzed using Graphpad Prism. […]

The target of experiment [4] is T2, USP7 catalytic domain (Homo sapiens, UniProt Q93009).
T2 construct: catalytic domain (208–560) used were cloned as described; inferred from Ni-NTA purification; made in house; host or cells: E. coli BL21 (DE3)
T2 sequence (Q93009 208-560): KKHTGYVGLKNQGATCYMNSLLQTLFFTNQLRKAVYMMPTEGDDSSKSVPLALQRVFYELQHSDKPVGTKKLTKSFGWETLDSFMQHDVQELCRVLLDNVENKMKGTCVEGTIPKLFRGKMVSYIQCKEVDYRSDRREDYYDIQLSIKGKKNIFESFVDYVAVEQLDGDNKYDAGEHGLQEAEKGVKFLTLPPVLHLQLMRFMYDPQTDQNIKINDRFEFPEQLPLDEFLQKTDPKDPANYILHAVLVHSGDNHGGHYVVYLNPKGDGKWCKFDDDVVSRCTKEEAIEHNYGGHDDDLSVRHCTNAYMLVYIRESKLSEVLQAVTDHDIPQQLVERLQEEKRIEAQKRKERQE
The experiment in a line: Intact MS / CE-MS labeling of purified USP7 catalytic domain. In kind it is binding. The following applies: 2.5-fold molar excess compound. The method, then:
Purified USP7 catalytic domain was diluted to 20 μM in 10 μL labeling buffer (20 mM HEPES pH 7.5, 150 mM NaCl, 1 mM TCEP) and incubated for the indicated times with 50 μM (2.5×) compound. After incubation, samples were flash frozen in liquid nitrogen and stored at −80 °C until analysis.
Intact mass analysis was performed by injecting 5 µg USP7 catalytic domain onto a self-packed reversed phase column (1/32” O.D. × 500 um I.D., 5 cm of POROS 10R2 resin). After desalting, protein was eluted with an HPLC gradient (0–100% B in 4 minutes, A = 0.2 M acetic acid in water, B = 0.2 M acetic acid in acetonitrile, flow rate ~30 µL/min) into an LTQ ion trap mass spectrometer (ThermoFisher Scientific, San Jose, CA). Mass spectra were processed using MagTran1.03b2[52].
Peptides were desalted using SP3[53], dried by vacuum centrifugation, and reconstituted in 1% formic acid/50% acetonitrile with 100 mM ammonium acetate. Peptides were then analyzed by CE-MS using a ZipChip CE system and autosampler (908 Devices, Boston, MA) interfaced to a QExactive HF mass spectrometer (ThermoFisher Scientific, San Jose, CA). Peptide solution was loaded for 30 seconds, and the mass spectrometer was operated in data dependent mode and subjected the 5 most abundant ions in each MS scan (60k resolution, 3E6 target, lock mass enabled) to MS/MS (15k resolution, 1E5 target, 100 ms max inject time). […]

Experiment [5] has as its system TC32 cells. The experiment can be described thus: Cell viability (CellTiter-Glo) in TC32 cells expressing sgRNA (TP53-KO vs control). In kind it is cell-based. The settings on record: 3 days, Cell Titer Glo. The method, then:
(§1) Cells were plated in 384-well culture-treated plates and allowed to settle overnight. After drug treament and appropriate incubation time, cell viability was assessed using the CellTiter-Glo Luminescent Cell Viability Assay (Promega). Luminescence was read on a Fluostar Omega Reader (BMG Labtech).
In general terms: In ATP-based viability assays light output follows the ATP content of the culture.

Experiment [6] has as its system Ewing Sarcoma, AML, multiple myeloma and rhabdoid cell lines. The experiment in a line: Cell viability (CellTiter-Glo) in individual cell line panels. The format is cell-based. The settings on record: Ewing Sarcoma lines and TC32 cells, 3 days. The method, then: as §1

Like-named read-outs stand apart in the source and are kept apart here.

T1 sequence (Q93009 whole entry, the tested form may be a part): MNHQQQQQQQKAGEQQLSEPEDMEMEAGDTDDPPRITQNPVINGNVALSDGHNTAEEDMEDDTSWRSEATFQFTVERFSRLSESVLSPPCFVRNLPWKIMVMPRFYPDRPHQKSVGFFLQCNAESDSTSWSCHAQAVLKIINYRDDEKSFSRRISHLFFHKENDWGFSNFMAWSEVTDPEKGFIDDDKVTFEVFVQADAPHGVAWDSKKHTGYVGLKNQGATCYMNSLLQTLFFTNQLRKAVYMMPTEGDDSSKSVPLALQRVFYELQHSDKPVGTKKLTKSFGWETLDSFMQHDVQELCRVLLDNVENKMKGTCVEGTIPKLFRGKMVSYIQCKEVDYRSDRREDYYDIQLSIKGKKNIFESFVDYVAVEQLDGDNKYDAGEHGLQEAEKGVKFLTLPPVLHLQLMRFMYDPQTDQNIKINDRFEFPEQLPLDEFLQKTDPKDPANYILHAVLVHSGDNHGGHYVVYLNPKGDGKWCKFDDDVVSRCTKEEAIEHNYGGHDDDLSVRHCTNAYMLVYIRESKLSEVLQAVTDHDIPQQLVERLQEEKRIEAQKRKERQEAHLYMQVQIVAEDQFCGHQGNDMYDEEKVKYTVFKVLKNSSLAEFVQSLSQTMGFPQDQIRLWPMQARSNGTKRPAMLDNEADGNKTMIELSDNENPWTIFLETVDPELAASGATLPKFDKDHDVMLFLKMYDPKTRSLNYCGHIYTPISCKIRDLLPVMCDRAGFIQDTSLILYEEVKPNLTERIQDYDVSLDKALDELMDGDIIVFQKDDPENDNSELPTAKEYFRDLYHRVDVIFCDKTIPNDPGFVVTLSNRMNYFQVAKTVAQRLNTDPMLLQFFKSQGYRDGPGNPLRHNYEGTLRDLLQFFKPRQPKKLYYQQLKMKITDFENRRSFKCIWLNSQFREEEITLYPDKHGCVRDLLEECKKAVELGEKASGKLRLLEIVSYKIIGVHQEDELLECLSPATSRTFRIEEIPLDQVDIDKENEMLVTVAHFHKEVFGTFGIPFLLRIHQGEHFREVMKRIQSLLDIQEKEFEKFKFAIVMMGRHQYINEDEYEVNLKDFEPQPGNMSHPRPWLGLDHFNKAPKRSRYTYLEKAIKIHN

What is called IC50 is the concentration that inhibits the measured activity by half. For `CN1CCN(CCC(=O)Nc2ccc3c(=O)n(CC4(O)CCN(C(=O)C(CCCNC(=O)c5ccc6c(Cl)c7c(nc6c5)CCCC7)Cc5ccccc5)CC4)cnc3c2)CC1` (centres unmarked) [XL112], the IC50 in experiment [1] is 5.9 nM.
The compound `COc1ccc(C2=N[C@@H](c3ccc(Cl)cc3)[C@@H](c3ccc(Cl)cc3)N2C(=O)N2CCNC(=O)C2)c(OC(C)C)c1` [nutlin3a] registered a log2FoldChange in experiment [2] of 0.9473.
The kinact is the maximal first-order rate at which the target is inactivated. Take `CN1CCN(CCC(=O)Nc2ccc3c(=O)n(CC4(O)CCN(C(=O)CCCCNC(=O)c5ccc6c(Cl)c7c(nc6c5)CCCC7)CC4)cnc3c2)CC1` [XL041]: the mode of inhibition result in experiment [3] is reported as “irreversible mode of inhibition”. For the same compound, the kinact in experiment [3] (pre-incubation 5 min - 3 hours) was 0.00373 s⁻¹. Besides, the IC50 in experiment [1] (Table S1) came out at 152 nM.
For `CN1CCN(CCC(=O)Nc2ccc3c(=O)n(CC4(O)CCN(C(=O)C(CCCNC(=O)c5ccc6cc7c(nc6c5)CCCC7)Cc5ccccc5)CC4)cnc3c2)CC1` (centres unmarked) [XL058], the “labeling of USP7 catalytic domain by MS” value in experiment [4] is “unable to label”. In addition, the IC50 in experiment [1] came to 904 nM.
For `CCc1c(-c2ccc3[nH]ncc3c2)cnc(N)c1-c1ccc(O)cc1` [GNE-6640], in experiment [5], the “differential response in TC32 TP53 knock out cells” value was “no differential”. Further, the “selectivity for TP53-WT versus TP53-mutant or TP53-KO cells” value is recorded as “showed little selectivity” in experiment [6] and “no differential response” in experiment [6] (listed as SB1_F_057).
As to `CN1CCN(CCC(=O)Nc2ccc3c(=O)n(CC4CCN(C(=O)C(CCCNC(=O)c5ccc6c(Cl)c7c(nc6c5)CCCC7)Cc5ccccc5)CC4)cnc3c2)CC1` (centres unmarked) [XL024], in experiment [1], the “less potent than XL058” value is ~ 10 fold, the “less potent than XL112” value is given as ~ 1,000 fold and the IC50 is 8000 nM. In addition, the IC50 in experiment [1] (Table S1) stood at 8130 nM.
